Results as given in ChEMBL document CHEMBL1201862, “PubChem BioAssay data set” (2004).
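Results reflect a 48-hour exposure of cells in 96-well plates to compound at five concentrations. Here, GI50 denotes the concentration required for 50% inhibition of growth.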 Active and inactive are the calls of the source. No stated cut-off is given here; in the data, active = GI50 up to about 1.1 µM and inactive = higher.

How the values were obtained:
Assay in all cases: DTP human tumour cell line panel, 48 h
NCI-H226 = test system: NCI-H226
LOX IMVI = test system: LOX IMVI
SF-268 = test system: SF-268
UACC-62 = test system: UACC-62
K562 = test system: K562
SN12C = test system: SN12C
RXF 393 = test system: RXF 393
TK-10 = test system: TK-10
T47D = test system: T47D
CCRF-CEM = test system: CCRF-CEM
MDA-MB-231 = test system: MDA-MB-231
NCI/ADR-RES = test system: NCI/ADR-RES
MOLT-4 = test system: MOLT-4
SR = test system: SR
PC-3 = test system: PC-3
SF-295 = test system: SF-295
HT-29 = test system: HT-29
OVCAR-8 = test system: OVCAR-8
NCI-H23 = test system: NCI-H23
SNB-75 = test system: SNB-75

| Structure (SMILES) | GI50 (NCI-H226) | GI50 (LOX IMVI) | GI50 (SF-268) | GI50 (UACC-62) | GI50 (K562) | GI50 (SN12C) | GI50 (RXF 393) | GI50 (TK-10) | GI50 (T47D) | GI50 (CCRF-CEM) | GI50 (MDA-MB-231) | GI50 (NCI/ADR-RES) | GI50 (MOLT-4) | GI50 (SR) | GI50 (PC-3) | GI50 (SF-295) | GI50 (HT-29) | GI50 (OVCAR-8) | GI50 (NCI-H23) | GI50 (SNB-75) |
| --- | --- | --- | --- | --- | --- | --- | --- | --- | --- | --- | --- | --- | --- | --- | --- | --- | --- | --- | --- | --- |
| CC(=O)Nc1ccc(S(=O)(=O)[N-]C2C(=O)c3ccccc3C(=O)C2[n+]2ccccc2)cc1 (stereo not given) | > 100 µM (inactive) | 63.4 µM (inactive) | 18.5 µM (inactive) | 14.8 µM (inactive) | 23.3 µM (inactive) | 99.3 µM (inactive) | 16 µM (inactive) | > 100 µM (inactive) | 47.6 µM (inactive) | 15.1 µM (inactive) | 26.6 µM (inactive) | 17.1 µM (inactive) | 17.6 µM (inactive) | 13.5 µM (inactive) | 17.1 µM (inactive) | 15.4 µM (inactive) | 45.1 µM (inactive) | 17.6 µM (inactive) | 7.64 µM (inactive) | 16.1 µM (inactive) |
| O=P1(NCCCl)OCCCN1CCCl (stereo not given) [IFOSFAMIDE] | 393 µM (inactive) | 311 µM (inactive) | 351 µM (inactive) | 363 µM (inactive) | 373 µM (inactive) | 388 µM (inactive) | 376 µM (inactive) | > 471 µM (inactive) | > 500 µM (inactive) | 207 µM (inactive) | > 500 µM (inactive) | 410 µM (inactive) | 262 µM (inactive) | > 500 µM (inactive) | > 500 µM (inactive) | 374 µM (inactive) | 406 µM (inactive) | 388 µM (inactive) | 417 µM (inactive) | 334 µM (inactive) |
| O=C(NO)c1ccc(C(=O)NO)cc1 | > 100 µM (inactive) | > 100 µM (inactive) | 58.3 µM (inactive) | > 100 µM (inactive) | 38.4 µM (inactive) | > 100 µM (inactive) | 50.4 µM (inactive) | 76 µM (inactive) | 30.3 µM (inactive) | 31.3 µM (inactive) | 43.6 µM (inactive) | 3.21 µM (inactive) | 24.9 µM (inactive) | 27.4 µM (inactive) | > 100 µM (inactive) | > 100 µM (inactive) | 87.9 µM (inactive) | 30.8 µM (inactive) | > 100 µM (inactive) | 8.2 µM (inactive) |
| COc1ccc2nc3ccccc3c(NCCCN(C)CCCl)c2c1 | 0.226 µM (active) | 0.138 µM (active) | 0.155 µM (active) | 0.23 µM (active) | 0.136 µM (active) | 0.16 µM (active) | 0.284 µM (active) | 0.859 µM (active) | 0.0358 µM (active) | 0.064 µM (active) | 0.641 µM (active) | 0.313 µM (active) | < 0.0133 µM (active) | < 0.0128 µM (active) | 0.202 µM (active) | 0.371 µM (active) | 0.0998 µM (active) | 0.142 µM (active) | 0.135 µM (active) | 0.224 µM (active) |
| NC(CS)C(=O)NCCNc1ccc(NCCNC(=O)C(N)CS)c2c1C(=O)c1c(O)ccc(O)c1C2=O (stereo not given) | 0.00847 µM (active) | 0.0185 µM (active) | 0.0246 µM (active) | 0.0223 µM (active) | 0.0468 µM (active) | 0.00836 µM (active) | 0.191 µM (active) | 0.667 µM (active) | 0.166 µM (active) | 0.00149 µM (active) | 0.433 µM (active) | 0.126 µM (active) | < 0.001 µM (active) | < 0.001 µM (active) | 0.126 µM (active) | 0.00782 µM (active) | 0.0897 µM (active) | 0.0225 µM (active) | 0.0115 µM (active) | 0.0236 µM (active) |
| COc1ccc2c(c1)c1nn(CCN(C)C)c3ccc4c(=O)n(CCN(C)C)c(=O)n2c4c13 | 0.125 µM (active) | 0.0171 µM (active) | < 0.01 µM (active) | 0.116 µM (active) | < 0.019 µM (active) | < 0.0234 µM (active) | 0.133 µM (active) | 0.0649 µM (active) | 0.144 µM (active) | < 0.01 µM (active) | 0.0211 µM (active) | 0.0148 µM (active) | < 0.01 µM (active) | < 0.01 µM (active) | 0.0103 µM (active) | < 0.01 µM (active) | < 0.01 µM (active) | < 0.01 µM (active) | < 0.0241 µM (active) | < 0.01 µM (active) |
